{
  "source": "patent US20240316067A1",
  "about": "“METHODS OF DECREASING HEPARAN SULFATE EXPRESSION USING EXT1 INHIBITORS” (priority 2023, published 2024)",
  "assay_type_in_all_cases": "cell-based",
  "key": {"HS3ST1": {"test_system": "HS3ST1", "test": "HS3ST1 reporter cell line, HTS of FDA-approved drug library (EC-50, CCK-8)", "details": "a listed drug is a confirmed inhibitor", "text": "FIGS. 13A-13C show EC-50 and CCK-8 experiments on HS3ST1 using bortezomib.\nFIGS. 14A-14C show EC-50 and CCK-8 experiments on HS3ST1 using zinc pyrithione.\nFIGS. 15A-15B show EC-50 and CCK-8 experiments on HS3ST1 using artesunate.\n(§1) Using a stable cell line with promoter luciferase reporter of the HS-biosynthetic gene EXT1, the EXT1 and other HS-biosynthetic gene reporter cell lines were screened with an FDA-approved drug library. (FIG. 1; FIG. 2)"}, "EXT1": {"test_system": "EXT1", "test": "EXT1 promoter luciferase reporter stable cell line, HTS of FDA-approved drug library (EC-50, CCK-8)", "details": "for confirmed candidates when screened with respect to EXT1: EC-50 and CCK-8, 10 μL; for Inhibition Candidate, confirmation at lower concentration: EXT1 cell line, 2nd confirmatory screen, a listed drug is a confirmed inhibitor", "text": "as §1"}, "HS3ST4": {"test_system": "HS3ST4", "test": "HS3ST4 reporter cell line, HTS of FDA-approved drug library", "details": "a listed drug is a confirmed inhibitor", "text": "as §1"}},
  "data": [
    {"compound": "C[C@H]1[C@H](OC(=O)CCC(=O)O)O[C@@H]2O[C@@]3(C)CC[C@H]4[C@H](C)CC[C@@H]1[C@@]24OO3", "note": "[Artesunate]", "values": [
      {"measurement": "Inhibition Candidate, confirmation at lower concentration", "setting": "HS3ST1", "value": "A1- Artesunate"}
    ]},
    {"compound": "CC(C)C[C@H](NC(=O)[C@H](Cc1ccccc1)NC(=O)c1cnccn1)B(O)O", "note": "[Bortezomib]", "values": [
      {"measurement": "Inhibition Candidate, confirmation at lower concentration", "setting": "HS3ST1", "value": "B3- Bortezomib"}
    ]},
    {"compound": "C=C1/C(=C\\C=C2/CCC[C@]3(C)[C@@H]([C@H](C)CCCC(C)(C)O)CC[C@@H]23)C[C@@H](O)C[C@@H]1O", "note": "[Calcitriol, 1, 25-dihydroxycholecalciferol]", "values": [
      {"measurement": "confirmed candidates when screened with respect to EXT1", "setting": "EXT1", "value": "confirmed candidates"},
      {"measurement": "Inhibition Candidate, confirmation at lower concentration", "setting": "EXT1", "value": "B2- Calcitriol"}
    ]},
    {"compound": "COc1ccc(/C=C\\c2cc(OC)c(OC)c(OC)c2)cc1OP(=O)(O)O", "note": "[Frosbretabullin, Fosbretabulin]", "values": [
      {"measurement": "Inhibition Candidate, confirmation at lower concentration", "setting": "HS3ST4", "value": "D5- Frosbretabullin"}
    ]},
    {"compound": "O=C(Nc1ccc([N+](=O)[O-])cc1Cl)c1cc(Cl)ccc1O", "note": "[Niclosamide]", "values": [
      {"measurement": "Inhibition Candidate, confirmation at lower concentration", "setting": "HS3ST4", "value": "A6- Niclosamide"}
    ]},
    {"compound": "C=C1CC[C@H](O)C/C1=C/C=C1\\CCC[C@]2(C)[C@@H]([C@H](C)CCCC(C)C)CC[C@@H]12", "note": "[Vitamin D3, cholecalciferol]", "values": [
      {"measurement": "confirmed candidates when screened with respect to EXT1", "setting": "EXT1", "value": "confirmed candidates"},
      {"measurement": "Inhibition Candidate, confirmation at lower concentration", "setting": "EXT1", "value": "D5- Vitamin D3"},
      {"measurement": "Inhibition Candidate, confirmation at lower concentration", "setting": "EXT1; listed as vitamin D3", "value": "confirmed to inhibit at low doses"}
    ]},
    {"compound": "Zinc pyrithione", "values": [
      {"measurement": "Inhibition Candidate, confirmation at lower concentration", "setting": "HS3ST1", "value": "D6- Zinc Pyrithione"}
    ]}
  ]
}
